Laboratory results published in patent publication US20240342148A1, “METHODS OF TREATING FACIOSCAPULOHUMERAL MUSCULAR DYSTROPHY WITH LOSMAPIMOD” (Fulcrum Therapeutics, Inc., priority 2021, published 2024).

Tested on: DUX4-regulated gene transcripts
Assay: DUX4-regulated transcript analysis by RT-qPCR in muscle biopsies (primary endpoint)
Format: in vivo, human
Conditions: log 2 scale
Procedure: All efficacy analyses were performed using the full analysis set (FAS), according to the randomized treatment group. The primary endpoint, change from baseline in DUX4 activity (DUX4 Score 1), was analyzed using the analysis of covariance approach, with treatment group and FSHD repeat number category (1 to 3 repeats versus 4 to 9 repeats) as fixed effects, and baseline DUX4 Score 1 as a covariate. Multiplicity adjustment was not performed, as the primary endpoint was not met.
Muscle needle biopsies were performed using the Bergstrom needle or fine needle at D1 and Wk16, or Wk36 if the muscle biopsy could not be performed at Wk16. The choice of the muscle(s) to be biopsied was determined by the investigator, informed by MRI taken during screening. […] The bilateral vastus lateralis, vastus medialis, lateral gastrocnemius, medial gastrocnemius, and tibialis anterior were evaluated for eligibility by MRI using a central reader. […]
The muscle tissue collected at each muscle needle biopsy (D1 and Wk16 or Wk36) was analyzed for DUX4 activity using a molecular panel of DUX4-regulated gene transcripts (CCNA1, KHDC1L, MBD312, PRAMEF6, SLC34A2 and ZSCAN4, with TBP, HMBS, CDKN1B as reference genes). Raw Cycle Thresholds (Cts) from quantitative polymerase chain reaction (qPCR) were determined for DUX4 regulated genes using a validated assay (Fluidigm). […]

Cc1c(F)cc(C(=O)NC2CC2)cc1-c1ccc(C(=O)NCC(C)(C)C)cn1 [losmapimod, 6-(5-cyclopropylcarbamoyl-3-fluoro-2-methyl-phenyl)-N-(2,2-dimethylpropyl-)-nicotinamide]
Change in DUX4 activity, difference losmapimod vs placebo (95% CI −1.04, 1.89, p=0.56): 0.43 | Change from baseline in DUX4 activity (combined Wk16 or Wk36 muscle biopsies): 0.83
